In US20140357512A1, “HISTONE DEACETYLASE (HDAC) BIOMARKERS IN MULTIPLE MYELOMA” (priority 2013, published 2014):

System: human myeloma cell line MM.1S
Assay: SILAC acetylated-lysine peptide profiling, HDAC inhibitor vs DMSO (light/heavy ratio)
Type: cell-based
Text: An embodiment of the invention comprises utilizing the SILAC method in order to quantitate changes in protein expression between two or more populations of cells. The SILAC method is a technique based on mass spectrometry that detects differences in protein abundance among samples using non-radioactive isotopic labeling. The SILAC method is known in the art, and described in detail in Ong et al., “Stable Isotope Labeling by Amino Acids in Cell Culture, SILAC, as a Simple and Accurate Approach to Expression Proteomics”, Molecular & Cellular Proteomics, vol. 1, pp. 376-386 (2002), which is incorporated herein by reference in its entirety.
Briefly, the SILAC method involves growing two populations of cells in cell culture. The first population of cells is grown in growth media containing normal amino acids (“normal media”). The second population of cells is grown in media lacking a standard essential amino acid (such as lysine), but is then supplemented with a non-radioactive, isotopically labeled form of that essential amino acid (such as lysine labeled with ^13C atoms, rather than normal ^12C atoms), which is called “heavy media”. When the two populations of cells are each growing in the medium, they incorporate the amino acids into all of their proteins. The growth of cells maintained in the heavy media is no different from that in normal media. All peptides containing the heavy amino acids are heavier than their normal counterparts. The cells from each of the two populations of cells are lysed. The lysates from each of the two cell populations are then combined. The combined cell lysates are then analyzed by mass spectrometry. Pairs of chemically identical peptides of different stable isotope composition can be differentiated in a mass spectrometer due to their difference in mass. The ratio of peak intensities in the mass spectrum for such peptide pairs reflects the abundance ratio for the two proteins.
This example describes SILAC studies that were performed to compare the effects of three different HDAC inhibitors (Compound A, Compound B, and tubastatin A) to a control on a human multiple myeloma cell line. The HDAC inhibitors were also compared amongst themselves to determine differences in their effects.
A human myeloma cell line MM.1S was grown using either ^12C (light) or ^13C (heavy) lysine containing culture medium. The “heavy” cells were treated with DMSO as the control, and the “light” cells were treated with a single HDAC inhibitor at 37° C. for 6 hours. The heavy and light cells were lysed, and the lysates were mixed in 1:1 ratio and digested with the protease trypsin. The acetylated lysine containing peptides (due to the action of the HDAC inhibitor) in the digested peptide pool were captured by a non-specific anti-acetylated lysine antibody cocktail (the antibodies identify both light and heavy acetylated peptides), and subjected to mass spectrometry analysis in order to identify thousands of individual peptides.
Thousands of peptides were identified in pairs (^12C and ^13C) due to their known mass differences. The amino acid sequence and quantitative ratio (Light/Heavy) of a given peptide in two differentially treated cell lysates were then determined and annotated with their possible protein (gene) sources.
As stated above, three HDAC inhibitors (Compound A, Compound B, and Tubastatin A) were used. Thus, the SILAC method was performed three times, with a different HDAC inhibitor compared to a control each time. Accordingly, there are three pairs of quantitative data in the table below, i.e., Compound A:DMSO, Compound B:DMSO, and Tubastatin A:DMSO. A cut-off of 1.30 fold of change (increase or decrease) was then used to determine “changed” or “+” in the table, and any peptides with a fold of change less than 1.3 fold were determined to be “unchanged” or “0” in the table. Those peptides that were not identified were marked as “NA” in the table. […]

O=C(CCCCCCNC(=O)c1cnc(N(c2ccccc2)c2ccccc2)nc1)NO [Compound A, 2-(diphenylamino)-N-(7-(hydroxyamino)-7-oxoheptyl)pyrimidine-5-carboxamide]
0.67 log 2: L/H ratio of acetylated peptide EVK(ac)VLLDQLR (SEQ ID NO: 698, Isoform 1 of Adipocyte plasma membrane-associated protein [250], C20orf3) | L/H ratio of acetylated peptide KAVTK(ac)VQK (SEQ ID NO: 699, Histone H2B type 2-F [21], HIST2H2BF) | L/H ratio of acetylated peptide ILQK(ac)QGFK (SEQ ID NO: 700, Dihydrolipoyl dehydrogenase mitochondrial [267], DLD)
0.72 log 2: L/H ratio of acetylated peptide […](ac)ASMK (SEQ ID NO: 715, Putative annexin A2-like protein [115], ANXA2P2) | L/H ratio of acetylated peptide LTCYLCK(ac)QK (SEQ ID NO: 716, Isoform 1 of Bromodomain-containing protein 1 [33]1, BRD1) | L/H ratio of acetylated peptide AINK(ac)AQK(ac)K (SEQ ID NO: 717, Histone H2B type 1-M [21:24], HIST1H2BM) | L/H ratio of acetylated peptide KGIEK(ac)NLGIGK (SEQ ID NO: 718, Malate dehydrogenase mitochondrial [301], MDH2) | L/H ratio of acetylated peptide DNGK(ac)[…] (SEQ ID NO: 719, ATP synthase subunit alpha mitochondrial [305], ATP5A1) | L/H ratio of acetylated peptide QLYNIYAK(ac)HTK (SEQ ID NO: 720, Putative ATP-dependent Clp protease proteolytic subunit mitochondrial [211], CLPP)
0.66 log 2: L/H ratio of acetylated peptide SELK(ac)HAK (SEQ ID NO: 696, Isoform Long of Delta-1-pyrroline-5-carboxylate synthase [68], ALDH18A1) | L/H ratio of acetylated peptide SCGLNPK(ac)LEK (SEQ ID NO: 697, Isoform 5 of Transcriptional regulator ATRX [468], ATRX)
0.74 log 2: L/H ratio of acetylated peptide SK(ac)FVLVK (SEQ ID NO: 729, Endoplasmic reticulum resident protein 29 [54], ERP29) | L/H ratio of acetylated peptide LVEDTK(ac)HRPK (SEQ ID NO: 730, 39S ribosomal protein L9 mitochondrial [87], MRPL9)
0.71 log 2: L/H ratio of acetylated peptide TDLEK(ac)[…] (SEQ ID NO: 714, Putative annexin A2-like protein [157], ANXA2P2)
0.73 log 2: L/H ratio of acetylated peptide GKGDK(ac)AQIEK (SEQ ID NO: 721, 60 kDa heat shock protein mitochondrial [364], HSPD1) | L/H ratio of acetylated peptide K(ac)FLVHNVK (SEQ ID NO: 722, 60S ribosomal protein L32 [76], RPL32) | L/H ratio of acetylated peptide GLIK(ac)LVSK (SEQ ID NO: 723, 40S ribosomal protein S25 [98], RPS25) | L/H ratio of acetylated peptide IGFAEK(ac)VAAK (SEQ ID NO: 724, Isoform Mitochondrial of Fumarate hydratase mitochondrial [292], FH) | L/H ratio of acetylated peptide (ac)AEK(ac)FDCHYCR (SEQ ID NO: 725, four and a half LIM domains protein 1 isoform 5 [20], FHL1) | L/H ratio of acetylated peptide […](ac)VIPK (SEQ ID NO: 726, Endoplasmic reticulum resident protein 29 [48], ERP29) | L/H ratio of acetylated peptide […](ac)SVAR (SEQ ID NO: 727, 60S ribosomal protein L7a [245], RPL7A, SNORD24) | L/H ratio of acetylated peptide TITMK(ac)QLLR (SEQ ID NO: 728, Branched-chain-amino-acid aminotransferase [281], BCAT2)
0.68 log 2: L/H ratio of acetylated peptide NK(ac)FGAPQK (SEQ ID NO: 701, Trifunctional enzyme subunit alpha mitochondrial [353], HADHA) | L/H ratio of acetylated peptide VTAVHK(ac)ANIMK (SEQ ID NO: 702, Isocitrate dehydrogenase [NAD] subunit gamma mitochondrial [221], IDH3G) | L/H ratio of acetylated peptide ACPEK(ac)HFAFK (SEQ ID NO: 703, Protein FAM3C [67], FAM3C) | L/H ratio of acetylated peptide KPTLDK(ac)PSPETFVK (SEQ ID NO: 704, Estradiol 17-beta-dehydrogenase 12 [249], HSD17B12) | L/H ratio of acetylated peptide QLAQK(ac)YNCDK (SEQ ID NO: 705, Ubiquitin-60S ribosomal protein L40 [88], UBA52) | L/H ratio of acetylated peptide […](ac)EDVK (SEQ ID NO: 706, Isoform 1 of ATP synthase subunit d mitochondrial [95], ATP5H)
0.69 log 2: L/H ratio of acetylated peptide […](ac)TLSK (SEQ ID NO: 707, Isoform 2 of PDZ domain-containing protein 2 [1726], PDZD2)
0.70 log 2: L/H ratio of acetylated peptide ADK(ac)LAEEHSS (SEQ ID NO: 708, ATP synthase subunit beta mitochondrial [522], ATP5B) | L/H ratio of acetylated peptide DFGSFDK(ac)FK (SEQ ID NO: 709, Superoxide dismutase [Mn] mitochondrial [130], SOD2) | L/H ratio of acetylated peptide KIDK(ac)YTEVLK (SEQ ID NO: 710, 60S ribosomal protein L13a [191], SNORD32A, RPL13A, SNORD33, SNORD34) | L/H ratio of acetylated peptide CSK(ac)LPSSTK(ac)SGWPR (SEQ ID NO: 711, cDNA FLJ75110 highly similar to Homo sapiens PHD finger protein 15 (PHF15) mRNA 3[2:38], PHF15) | L/H ratio of acetylated peptide KAINK(ac)AQK (SEQ ID NO: 712, Histone H2B type 1-M [21], HIST1H2BM) | L/H ratio of acetylated peptide EFPEK(ac)QELHR (SEQ ID NO: 713, Protein zer-1 homolog [584], ZER1)
